Laboratory results published in US20250325711A1, “COVALENT FLUORESCENT PROBES FOR CANNABINOID RECEPTOR 2” (Hoffmann-La Roche Inc., priority 2022, published 2025).
Where two headings read alike, the source gives them in different places.

Target: hCB2R (Homo sapiens (Human), UniProt P34972)
Assay: TR-FRET hCB2R Binding Assay
[1] = SNAP-tagged human CB2R HEK293-TR cell membranes, TR-FRET (HTRF) detection, nonspecific binding with 1 μM SR144528, read-out: Kd hCB2R

| Structure (SMILES) | Kd [1] [nM] | Kd [nM] |
| --- | --- | --- |
| COc1cc(C(C)(C)CCCCCCN=[N+]=[N-])cc(OC)c1[C@H]1C=C(CNC(=O)CCCCNC(=O)c2ccc(=O)n(S(=O)(=O)c3cccc(C(=O)NCCc4cn(CCOCCNc5ccc([N+](=O)[O-])c6nonc56)nn4)c3)c2)[C@H]2C[C@@H]1C2(C)C [Example 1, N-(5-((((1S,4S,5S)-4-(4-(8-azido-2-methyloctan-2-yl)-2,6-dimethoxyphenyl)-6,6-dimethylbicyclo[3.1.1]hept-2-en-2-yl)methyl)amino)-5-oxopentyl)-1-((3-((2-(1-(2-(2-((7-nitrobenzo[c][1,2,5]oxadiazol-4-yl)amino)ethoxy)ethyl)-1H-1,2,3-triazol-4-yl)ethyl)carbamoyl)phenyl)sulfonyl)-6-oxo-1,6-dihydropyridine-3-carboxamide] | 9.1 | – |
| COc1cc(C(C)(C)CCCCCCN=[N+]=[N-])cc(OC)c1[C@H]1C=C(CNC(=O)CCCCCCNC(=O)c2ccc(=O)n(S(=O)(=O)c3cccc(C(=O)NCc4cn(CCOCCNc5ccc([N+](=O)[O-])c6nonc56)nn4)c3)c2)[C@H]2C[C@@H]1C2(C)C [Example 2, N-(7-((((1S,4S,5S)-4-(4-(8-azido-2-methyloctan-2-yl)-2,6-dimethoxyphenyl)-6,6-dimethylbicyclo[3.1.1]hept-2-en-2-yl)methyl)amino)-7-oxoheptyl)-1-((3-(((1-(2-(2-((7-nitrobenzo[c][1,2,5]oxadiazol-4-yl)amino)ethoxy)ethyl)-1H-1,2,3-triazol-4-yl)methyl)carbamoyl)phenyl)sulfonyl)-6-oxo-1,6-dihydropyridine-3-carboxamide] | 22.9 | – |
| CCCCCCC(C)(C)c1cc(OC)c([C@H]2C=C(CNC(=O)CCCCCCNC(=O)c3ccc(=O)n(S(=O)(=O)c4cccc(C(=O)NCc5cn(CCOCCNc6ccc([N+](=O)[O-])c7nonc67)nn5)c4)c3)[C@H]3C[C@@H]2C3(C)C)c(OC)c1 [Example 3, N-(7-((((1S,4S,5S)-4-(2,6-dimethoxy-4-(2-methyloctan-2-yl)phenyl)-6,6-dimethylbicyclo[3.1.1]hept-2-en-2-yl)methyl)amino)-7-oxoheptyl)-1-((3-(((1-(2-(2-((7-nitrobenzo[c][1,2,5]oxadiazol-4-yl)amino)ethoxy)ethyl)-1H-1,2,3-triazol-4-yl)methyl)carbamoyl)phenyl)sulfonyl)-6-oxo-1,6-dihydropyridine-3-carboxamide] | 24.2 | – |
| COc1cc(C(C)(C)CCCCCCN=[N+]=[N-])cc(OC)c1[C@H]1C=C(CNC(=O)CCCCCCNC(=O)c2ccc(=O)n(S(=O)(=O)c3cccc(C(=O)NCc4cn(CCOCCOCCOCCOCCNc5ccc([N+](=O)[O-])c6nonc56)nn4)c3)c2)[C@H]2C[C@@H]1C2(C)C [Example 4, N-(7-((((1S,4S,5S)-4-(4-(8-azido-2-methyloctan-2-yl)-2,6-dimethoxyphenyl)-6,6-dimethylbicyclo[3.1.1]hept-2-en-2-yl)methyl)amino)-7-oxoheptyl)-1-((3-(((1-(14-((7-nitrobenzo[c][1,2,5]oxadiazol-4-yl)amino)-3,6,9,12-tetraoxatetradecyl)-1H-1,2,3-triazol-4-yl)methyl)carbamoyl)phenyl)sulfonyl)-6-oxo-1,6-dihydropyridine-3-carboxamide] | 4.5 | – |
| CCN(CC)c1ccc2cc(C=Cc3ccc(S(=O)(=O)[O-])c[n+]3CCCCCC(=O)NCCOCCn3cc(CNC(=O)c4cccc(S(=O)(=O)n5cc(C(=O)NCCCCCCC(=O)NCC6=C[C@H](c7c(OC)cc(C(C)(C)CCCCCCN=[N+]=[N-])cc7OC)[C@@H]7C[C@H]6C7(C)C)ccc5=O)c4)nn3)c(=O)oc2c1 [Example 5, 1-(6-((2-(2-(4-((3-((5-((7-((((1S,4S,5S)-4-(4-(8-azido-2-methyloctan-2-yl)-2,6-dimethoxyphenyl)-6,6-dimethylbicyclo[3.1.1]hept-2-en-2-yl)methyl)amino)-7-oxoheptyl)carbamoyl)-2-oxopyridin-1 (2H)-yl)sulfonyl)benzamido)methyl)-1H-1,2,3-triazol-1-yl)ethoxy)ethyl)amino)-6-oxohexyl)-6-(2-(7-(diethylamino)-2-oxo-2H-chromen-3-yl)vinyl)pyridin-1-ium-3-sulfonate] | 59 | – |
| COc1cc(C(C)(C)CCCCCCN=[N+]=[N-])cc(OC)c1[C@H]1C=C(CNC(=O)CCCCCCCCNC(=O)c2ccc(=O)n(S(=O)(=O)c3cccc(C(=O)NCc4cn(CCOCCNc5ccc([N+](=O)[O-])c6nonc56)nn4)c3)c2)[C@H]2C[C@@H]1C2(C)C [Example 7, N-(9-((((1S,4S,5S)-4-(4-(8-azido-2-methyloctan-2-yl)-2,6-dimethoxyphenyl)-6,6-dimethylbicyclo[3.1.1]hept-2-en-2-yl)methyl)amino)-9-oxononyl)-1-((3-(((1-(2-(2-((7-nitrobenzo[c][1,2,5]oxadiazol-4-yl)amino)ethoxy)ethyl)-1H-1,2,3-triazol-4-yl)methyl)carbamoyl)phenyl)sulfonyl)-6-oxo-1,6-dihydropyridine-3-carboxamide] | – | 8.9 |
| COc1cc(C(C)(C)CCCCCCN=[N+]=[N-])cc(OC)c1[C@H]1C=C(CNC(=O)CCCCCCNC(=O)c2ccc(S(=O)(=O)N(Cc3ccccn3)C(=O)CCCCCNc3ccc([N+](=O)[O-])c4nonc34)cc2)[C@H]2C[C@@H]1C2(C)C [Example 8, N-(7-((((1S,4S,5S)-4-(4-(8-azido-2-methyloctan-2-yl)-2,6-dimethoxyphenyl)-6,6-dimethylbicyclo[3.1.1]hept-2-en-2-yl)methyl)amino)-7-oxoheptyl)-4-(N-(6-((7-nitrobenzo[c][1,2,5]oxadiazol-4-yl)amino)hexanoyl)-N-(pyridin-2-ylmethyl)sulfamoyl)benzamide] | 12 | – |
| CCCCCCC(C)(C)c1cc(OC)c([C@H]2C=C(CNC(=O)CCCCCCNC(=O)c3ccc(S(=O)(=O)N(Cc4ccccn4)C(=O)CCCCCNc4ccc([N+](=O)[O-])c5nonc45)cc3)[C@H]3C[C@@H]2C3(C)C)c(OC)c1 [Example 9, N-(7-((((1S,4S,5S)-4-(2,6-dimethoxy-4-(2-methyloctan-2-yl)phenyl)-6,6-dimethylbicyclo[3.1.1]hept-2-en-2-yl)methyl)amino)-7-oxoheptyl)-4-(N-(6-((7-nitrobenzo[c][1,2,5]oxadiazol-4-yl)amino)hexanoyl)-N-(pyridin-2-ylmethyl)sulfamoyl)benzamide] | 35.5 | – |
| COc1cc(C(C)(C)CCCCCCN=[N+]=[N-])cc(OC)c1[C@H]1C=C(CNC(=O)CCCCCCNC(=O)c2ccc(S(=O)(=O)N(CC#N)C(=O)CCCCCNc3ccc([N+](=O)[O-])c4nonc34)cc2)[C@H]2C[C@@H]1C2(C)C [Example 10, N-(7-((((1S,4S,5S)-4-(4-(8-azido-2-methyloctan-2-yl)-2,6-dimethoxyphenyl)-6,6-dimethylbicyclo[3.1.1]hept-2-en-2-yl)methyl)amino)-7-oxoheptyl)-4-(N-(cyanomethyl)-N-(6-((7-nitrobenzo[c][1,2,5]oxadiazol-4-yl)amino)hexanoyl)sulfamoyl)benzamide] | 3.9 | – |
| COc1cc(C(C)(C)CCCCCCN=[N+]=[N-])cc(OC)c1[C@H]1C=C(CNC(=O)CCCCCCNC(=O)c2ccc(S(=O)(=O)N(CC#N)C(=O)CCc3cn(CCOCCNc4ccc([N+](=O)[O-])c5nonc45)nn3)cc2)[C@H]2C[C@@H]1C2(C)C [Example 11, N-(7-((((1S,4S,5S)-4-(4-(8-azido-2-methyloctan-2-yl)-2,6-dimethoxyphenyl)-6,6-dimethylbicyclo[3.1.1]hept-2-en-2-yl)methyl)amino)-7-oxoheptyl)-4-(N-(cyanomethyl)-N-(3-(1-(2-(2-((7-nitrobenzo[c][1,2,5]oxadiazol-4-yl)amino)ethoxy)ethyl)-1H-1,2,3-triazol-4-yl)propanoyl)sulfamoyl)benzamide] | 152 | – |
| CCN(CC)c1ccc2cc(C=Cc3ccc(S(=O)(=O)[O-])c[n+]3CCCCCC(=O)NCCOCCn3cc(CCC(=O)N(CC#N)S(=O)(=O)c4ccc(C(=O)NCCCCCCC(=O)NCC5=C[C@H](c6c(OC)cc(C(C)(C)CCCCCCN=[N+]=[N-])cc6OC)[C@@H]6C[C@H]5C6(C)C)cc4)nn3)c(=O)oc2c1 [Example 12, 1-(6-((2-(2-(4-(3-((4-((7-((((1S,4S,5S)-4-(4-(8-azido-2-methyloctan-2-yl)-2,6-dimethoxyphenyl)-6,6-dimethylbicyclo[3.1.1]hept-2-en-2-yl)methyl)amino)-7-oxoheptyl)carbamoyl)-N-(cyanomethyl)phenyl)sulfonamido)-3-oxopropyl)-1H-1,2,3-triazol-1-yl)ethoxy)ethyl)amino)-6-oxohexyl)-6-(2-(7-(diethylamino)-2-oxo-2H-chromen-3-yl)vinyl)pyridin-1-ium-3-sulfonate] | 25 | – |
| COc1cc(C(C)(C)CCCCCCN=[N+]=[N-])cc(OC)c1[C@H]1C=C(CNC(=O)CCCCCCNC(=O)c2ccc(S(=O)(=O)N(CC#N)C(=O)CCc3cn(CCOCCNC(=O)c4ccc5c(c4)C4(OC5=O)c5ccc(N6CCC6)cc5[Si](C)(C)c5cc(N6CCC6)ccc54)nn3)cc2)[C@H]2C[C@@H]1C2(C)C [Example 13, 3,7-di(azetidin-1-yl)-N-(2-(2-(4-(3-((4-((7-((((1S,4S,5S)-4-(4-(8-azido-2-methyloctan-2-yl)-2,6-dimethoxyphenyl)-6,6-dimethylbicyclo[3.1.1]hept-2-en-2-yl)methyl)amino)-7-oxoheptyl)carbamoyl)-N-(cyanomethyl)phenyl)sulfonamido)-3-oxopropyl)-1H-1,2,3-triazol-1-yl)ethoxy)ethyl)-5,5-dimethyl-3′-oxo-3′H,5H-spiro[dibenzo[b,e]siline-10,1′-isobenzofuran]-6′-carboxamide] | 124 | – |
| C#CCCC(=O)N(CC#N)S(=O)(=O)c1ccc(C(=O)NCCCCCCC(=O)NCC2=C[C@H](c3c(OC)cc(C(C)(C)CCCCCCN=[N+]=[N-])cc3OC)[C@@H]3C[C@H]2C3(C)C)cc1 [Example 14, N-(7-((((1S,4S,5S)-4-(4-(8-azido-2-methyloctan-2-yl)-2,6-dimethoxyphenyl)-6,6-dimethylbicyclo[3.1.1]hept-2-en-2-yl)methyl)amino)-7-oxoheptyl)-4-(N-(cyanomethyl)-N-(pent-4-ynoyl)sulfamoyl)benzamide] | 1.5 | – |
